Reference: patent publication US12202835B2, “Substituted aromatic ring-linked dioxinoquinazolines and dioxinoquinolines as kinase inhibitors” (BEIJING SCITECH-MQ PHARMACEUTICALS LIMITED, priority 2018, dated 2025)

What was measured:
[1] = system: Ba/F3 LMNA-NTRK1-G595R cells; assay: Assay for inhibiting the proliferation of Ba/F3 LMNA-NTRK1-G595R cells (CCK-8); type: cell-based; settings: Mus musculus, BaF3
How it was run: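 Cells seeded in 96-well plates overnight, then exposed 72 h to 9 three-fold dilutions of compound (0.25% DMSO final). Viability by CCK-8 (1-2 h at 37° C., OD 450 nm), survival normalized to untreated and cell-free blanks; IC50 by curve fitting.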

Ba/F3-AXL cells = assay: Assay for inhibiting the proliferation of Ba/F3-AXL cells (CCK-8); type: cell-based; settings: 72 hours of incubation, medium with 100 ng/mL hGas6, CCK-8
Method: The values were then imported into Graphpad Prism 5 software for curve fitting, and IC50 was calculated.

TRKA kinase = TRKA kinase (Homo sapiens (Human), UniProt P04629); assay: Assay of small molecular compounds for inhibiting the activity of TRKA kinase (LANCE TR-FRET); type: biochemical
Sequence of TRKA kinase (P04629 33-796): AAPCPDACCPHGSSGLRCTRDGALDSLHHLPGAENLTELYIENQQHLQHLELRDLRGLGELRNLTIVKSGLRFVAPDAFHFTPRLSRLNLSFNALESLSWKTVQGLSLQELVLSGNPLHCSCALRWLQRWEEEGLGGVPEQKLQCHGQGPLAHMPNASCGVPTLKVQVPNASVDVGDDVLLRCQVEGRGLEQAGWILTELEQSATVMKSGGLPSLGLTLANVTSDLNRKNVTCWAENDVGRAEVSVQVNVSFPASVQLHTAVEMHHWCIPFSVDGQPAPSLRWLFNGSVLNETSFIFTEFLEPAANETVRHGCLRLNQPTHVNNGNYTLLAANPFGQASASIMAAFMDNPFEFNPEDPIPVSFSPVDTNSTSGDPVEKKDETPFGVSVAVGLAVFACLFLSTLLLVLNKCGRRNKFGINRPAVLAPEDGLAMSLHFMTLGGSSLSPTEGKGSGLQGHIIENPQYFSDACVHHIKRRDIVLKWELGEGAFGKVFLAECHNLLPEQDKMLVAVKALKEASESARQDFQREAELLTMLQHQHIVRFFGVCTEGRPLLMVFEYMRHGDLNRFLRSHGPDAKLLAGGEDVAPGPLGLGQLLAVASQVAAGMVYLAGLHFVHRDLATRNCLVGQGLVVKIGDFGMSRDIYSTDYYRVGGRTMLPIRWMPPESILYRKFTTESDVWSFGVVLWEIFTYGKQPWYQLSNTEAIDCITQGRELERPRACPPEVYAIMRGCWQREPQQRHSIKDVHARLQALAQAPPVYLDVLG
How it was run: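 LANCE TR-FRET with ULight-TK peptide; compounds pre-incubated 5 min with TRKA (2× solution 2 nM), then substrate/ATP added (4× mix: 400 nM peptide, 40 μM ATP). Reaction 60 min at room temperature in dark, 1% DMSO final; stopped, detection developed 60 min, signal read.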

Row | SMILES | IC50 [1] [nM] | IC50 (Ba/F3-AXL cells) [nM] | IC50 (TRKA kinase) [nM]
1 | CC(=O)N1CCN(CCCOc2cc3nccc(Oc4ccc(NC(=O)c5cn(C(C)C)c(=O)n(-c6ccc(F)cc6)c5=O)cc4F)c3c3c2OCCO3)CC1 [Example 75, N-(3-fluoro-4-((5-(3-(4-acetylpiperazin-1-yl)propoxy)-2,3-dihydro-[1,4]dioxino[2,3-f]quinolin-10-yl)oxy)phenyl)-3-(4-fluorophenyl)-1-isopropyl-2,4-dioxo-1,2,3,4-tetrahydropyrimidine-5-carboxamide] | 200 to 1000 | – | < 50
2 | CCOc1ccn(-c2ccc(F)cc2)c(=O)c1C(=O)Nc1ccc(Oc2ccnc3cc(OC4COC4)c4c(c23)OCCO4)c(F)c1 [Example 64, N-(4-((5-((oxetan-3-yl)oxy)-2,3-dihydro-[1,4]dioxino[2,3-f]quinolin-10-yl)oxy)-3-fluorophenyl)-4-ethoxy-1-(4-fluorophenyl)-2-oxo-1,2-dihydropyridine-3-carboxamide] | – | < 50 | < 50
3 | CCOc1ccn(-c2ccc(F)cc2)c(=O)c1C(=O)Nc1ccc(Oc2ccnc3cc(OCCCN4CCC(C)(N)CC4)c4c(c23)OCCO4)c(F)c1 [Example 68, N-(4-((5-(3-(4-amino-4-methylpiperidin-1-yl)propoxy)-2,3-dihydro-[1,4]dioxino[2,3-f]quinolin-10-yl)oxy)-3-fluorophenyl)-4-ethoxy-1-(4-fluorophenyl)-2-oxo-1,2-dihydropyridine-3-carboxamide] | – | < 50 | < 50
4 | CCOc1ccn(-c2ccc(F)cc2)c(=O)c1C(=O)Nc1ccc(Oc2ccnc3cc(OC4CCOCC4)c4c(c23)OCCO4)c(F)c1 [Example 66, N-(4-((5-((tetrahydropyran-4-yl)oxy)-2,3-dihydro-[1,4]dioxino[2,3-f]quinolin-10-yl)oxy)-3-fluorophenyl)-4-ethoxy-1-(4-fluorophenyl)-2-oxo-1,2-dihydropyridine-3-carboxamide] | – | < 50 | < 50
5 | CCOc1cc2nccc(Oc3ccc(NC(=O)c4c(OCC)ccn(-c5ccc(F)cc5)c4=O)cc3F)c2c2c1OCCO2 [Example 62, N-(4-((5-ethoxy-2,3-dihydro-[1,4]dioxino[2,3-f]quinolin-10-yl)oxy)-3-fluorophenyl)-4-ethoxy-1-(4-fluorophenyl)-2-oxo-1,2-dihydropyridine-3-carboxamide] | – | < 50 | < 50
6 | CC(C)n1cc(C(=O)Nc2ccc(Oc3ccnc4cc(OCCCN5CCCC5)c5c(c34)OCCO5)c(F)c2)c(=O)n(-c2ccc(F)cc2)c1=O [Example 77, N-(3-fluoro-4-((5-(3-(pyrrolidin-1-yl)propoxy)-2,3-dihydro-[1,4]dioxino[2,3-f]quinolin-10-yl)oxy)phenyl)-3-(4-fluorophenyl)-1-isopropyl-2,4-dioxo-1,2,3,4-tetrahydropyrimidine-5-carboxamide] | 200 to 1000 | < 50 | < 50
7 | COc1cc2ncnc(Oc3ccc(NC(=O)c4c(OC)ccn(-c5ccc(F)cc5)c4=O)cc3F)c2c2c1OCCO2 [Example 2, N-(3-fluoro-4-((5-methoxy-2,3-dihydro-[1,4]dioxino[2,3-f]quinazolin-10-yl)oxy)phenyl)-1-(4-fluorophenyl)-4-methoxy-2-oxo-1,2-dihydropyridine-3-carboxamide] | – | < 50 | < 50
8 | CCOc1ccn(-c2ccc(F)cc2)c(=O)c1C(=O)Nc1ccc(Oc2ccnc3cc(OCCCN4CCN(C)CC4)c4c(c23)OCCO4)c(F)c1 [Example 49, N-(3-fluoro-4-((5-(3-(4-methylpiperazin-1-yl)propoxy)-2,3-dihydro-[1,4]dioxino[2,3-f]quinolin-10-yl)oxy)phenyl)-1-(4-fluorophenyl)-4-ethoxy-2-oxo-1,2-dihydropyridine-3-carboxamide] | – | < 50 | < 50
9 | CCOc1ccn(-c2ccc(F)cc2)c(=O)c1C(=O)Nc1ccc(Oc2ccnc3cc(OCC(C)C)c4c(c23)OCCO4)c(F)c1 [Example 58, N-(4-((5-(isobutyloxy)-2,3-dihydro-[1,4]dioxino[2,3-f]quinolin-10-yl)oxy)-3-fluorophenyl)-4-ethoxy-1-(4-fluorophenyl)-2-oxo-1,2-dihydropyridine-3-carboxamide] | – | < 50 | 50 to 500
10 | CCOc1ccn(-c2ccc(F)cc2)c(=O)c1C(=O)Nc1ccc(Oc2ccnc3cc(OCCCN4CCCC4)c4c(c23)OCCO4)c(F)c1 [Example 52, N-(4-((5-(3-(pyrrolidin-1-yl)propoxy)-2,3-dihydro-[1,4]dioxino[2,3-f]quinolin-10-yl)oxy)-3-fluorophenyl)-4-ethoxy-1-(4-fluorophenyl)-2-oxo-1,2-dihydropyridine-3-carboxamide] | – | < 50 | < 50
11 | CCOc1ccn(-c2ccc(F)cc2)c(=O)c1C(=O)Nc1ccc(Oc2ccnc3cc(OCCCC#N)c4c(c23)OCCO4)c(F)c1 [Example 57, N-(4-((5-(3-cyanopropoxy)-2,3-dihydro-[1,4]dioxino[2,3-f]quinolin-10-yl)oxy)-3-fluorophenyl)-4-ethoxy-1-(4-fluorophenyl)-2-oxo-1,2-dihydropyridine-3-carboxamide] | – | < 50 | < 50

The remaining lines, values ahead:

Row | IC50 [1] [nM] | IC50 (Ba/F3-AXL cells) [nM] | IC50 (TRKA kinase) [nM] | SMILES
12 | ≤ 50 | < 50 | < 50 | CCn1cc(C(=O)Nc2ccc(Oc3ccnc4cc(OCCOC)c5c(c34)OCCO5)c(F)c2)c(=O)n(-c2ccc(F)cc2)c1=O [Example 44, N-(3-fluoro-4-((5-(2-methoxyethoxy)-2,3-dihydro-[1,4]dioxino[2,3-f]quinolin-10-yl)oxy)phenyl)-3-(4-fluorophenyl)-1-ethyl-2,4-dioxo-1,2,3,4-tetrahydropyrimidine-5-carboxamide]
13 | 50 to 200 | < 50 | < 50 | CC(C)n1cc(C(=O)Nc2ccc(Oc3ccnc4cc(OCCO)c5c(c34)OCCO5)c(F)c2)c(=O)n(-c2ccc(F)cc2)c1=O [Example 78, N-(3-fluoro-4-((5-(2-hydroxyethoxy)-2,3-dihydro-[1,4]dioxino[2,3-f]quinolin-10-yl)oxy)phenyl)-3-(4-fluorophenyl)-1-isopropyl-2,4-dioxo-1,2,3,4-tetrahydropyrimidine-5-carboxamide]
14 | 50 to 200 | < 50 | 50 to 500 | COCCOc1cc2nccc(Oc3ccc(NC(=O)c4cn(C(C)C)c(=O)n(-c5ccc(F)cc5)c4=O)cc3F)c2c2c1OCCO2 [Example 43, N-(3-fluoro-4-((5-(2-methoxyethoxy)-2,3-dihydro-[1,4]dioxino[2,3-f]quinolin-10-yl)oxy)phenyl)-3-(4-fluorophenyl)-1-isopropyl-2,4-dioxo-1,2,3,4-tetrahydropyrimidine-5-carboxamide]
15 | 50 to 200 | < 50 | < 50 | Cn1cc(C(=O)Nc2ccc(Oc3ccnc4cc(OC5CCOC5)c5c(c34)OCCO5)c(F)c2)c(=O)n(-c2ccc(F)cc2)c1=O (stereo not shown) [Example 90, N-(3-fluoro-4-((5-((tetrahydrofuran-3-yl)oxy)-2,3-dihydro-[1,4]dioxino[2,3-f]quinolin-10-yl)oxy)phenyl)-3-(4-fluorophenyl)-1-methyl-2,4-dioxo-1,2,3,4-tetrahydropyrimidine-5-carboxamide]
16 | – | < 50 | 50 to 500 | CC(C)Oc1cc2nccc(Oc3ccc(NC(=O)c4cn(C)c(=O)n(-c5ccc(F)cc5)c4=O)cc3F)c2c2c1OCCO2 [Example 88, N-(3-fluoro-4-((5-isopropoxy-2,3-dihydro-[1,4]dioxino[2,3-f]quinolin-10-yl)oxy)phenyl)-3-(4-fluorophenyl)-1-methyl-2,4-dioxo-1,2,3,4-tetrahydropyrimidine-5-carboxamide]
17 | – | < 50 | 50 to 500 | COc1cc2nccc(Oc3ccc(NC(=O)c4cn(CCO)c(=O)n(-c5ccc(F)cc5)c4=O)cc3F)c2c2c1OCCO2 [Example 45, N-(3-fluoro-4-((5-methoxy-2,3-dihydro-[1,4]dioxino[2,3-f]quinolin-10-yl)oxy)phenyl)-3-(4-fluorophenyl)-1-(2-hydroxyethyl)-2,4-dioxo-1,2,3,4-tetrahydropyrimidine-5-carboxamide]
18 | – | < 50 | < 50 | COCCCOc1cc2nccc(Oc3ccc(NC(=O)c4cn(C)c(=O)n(-c5ccc(F)cc5)c4=O)cc3F)c2c2c1OCCO2 [Example 80, N-(3-fluoro-4-((5-(3-methoxypropoxy)-2,3-dihydro-[1,4]dioxino[2,3-f]quinolin-10-yl)oxy)phenyl)-3-(4-fluorophenyl)-1-methyl-2,4-dioxo-1,2,3,4-tetrahydropyrimidine-5-carboxamide]
19 | 200 to 1000 | < 50 | < 50 | CN1CCN(CCCOc2cc3nccc(Oc4ccc(NC(=O)c5cn(C)c(=O)n(-c6ccc(F)cc6)c5=O)cc4F)c3c3c2OCCO3)CC1 [Example 74, N-(3-fluoro-4-((5-(3-(4-methylpiperazin-1-yl)propoxy)-2,3-dihydro-[1,4]dioxino[2,3-f]quinolin-10-yl)oxy)phenyl)-3-(4-fluorophenyl)-1-methyl-2,4-dioxo-1,2,3,4-tetrahydropyrimidine-5-carboxamide]
20 | 50 to 200 | – | < 50 | CC(C)n1cc(C(=O)Nc2ccc(Oc3ccnc4cc(OCCCO)c5c(c34)OCCO5)c(F)c2)c(=O)n(-c2ccc(F)cc2)c1=O [Example 79, N-(3-fluoro-4-((5-(3-hydroxypropoxy)-2,3-dihydro-[1,4]dioxino[2,3-f]quinolin-10-yl)oxy)phenyl)-3-(4-fluorophenyl)-1-isopropyl-2,4-dioxo-1,2,3,4-tetrahydropyrimidine-5-carboxamide]
